Experiments:
PDE3 = PDE3 activity inhibition; assay type: biochemical
A/J mice [1] = assay: LPS-induced lung inflammation and airway hyper-reactivity; assay type: in vivo; details: LASSBio-448 2.5 and 10 mg/kg oral, cilomilast 1 mg/kg oral, 1 h before LPS, 24 h post-challenge
Protocol: A/J mice were anesthetized with isoflurane aerosol and then challenged with LPS (25μg/25 μL) or phosphate buffered solution (PBS) by intranasal instillation as reported. The analyses were performed 24 h after stimulation. Treatment with LASSBio-448 (2.5–10 mg/kg/mice) or cilomilast (1 mg/kg) was performed orally, 1 h before LPS exposure. LASSBio-448 was dissolved in 0.2% Tween 80, while cilomilast was dissolved in 1 M NaOH and further neutralized with 1 N HCl, before adjusting the final volume with 0.9% NaCl solution (saline). The substances were dissolved immediately before use.
Airflow and transpulmonary pressure were recorded with a Buxco pulmonary mechanics processing system (Buxco Electronics, Sharon, CT), which calculated resistance (cmH2O.s/ml) and dynamic lung compliance (mL/cmH2O) in each breath cycle. Elastance was calculated as the inverse of compliance values. Mice were anesthetized with nembutal (60 mg/kg), and the neuromuscular activity was blocked with bromide pancuronium (1 mg/kg). Animals were allowed to stabilize for 5 min and increasing concentrations of methacholine (3–27 mg/mL) were aerosolized for 5 min each. Baseline pulmonary parameters were assessed with aerosolized phosphate buffer solution (PBS).
The MPO activity present in the lung tissue was colorimetrically determined as described by Hirano (1996), with minor changes. Briefly, after lung perfusion with 20 mM EDTA in 0.9% saline, lung samples were homogenized in Hank´s balanced solution (HBSS) at pH 7.4. The homogenates were centrifuged for 10 min at 1300 xg and 4°C. Red blood cells were removed by hypotonic and hypertonic lysis and suspended cells were re-centrifuged as described above. The pellet was then suspended in HBSS at pH 7.4 containing 0.5% hexadecyltrimethyl ammonium bromide (HTAB). The homogenates were centrifuged for 30 min at 12500 xg and 4°C. The supernatants were then collected and incubated with 0.167 mg/mL of ortho-dianisidine dihydrochloride for 15 min at 37°C, after which 0.0006% H2O2 in 50 mM phosphate buffer at pH 6 was added. The reaction was stopped 10 min later by adding 50 μL of 1% sodium azide. The measurement was done at 460 nm using the SpectraMax M5 microplate reader (Molecular Devices).

A/J mice [2] = assay: Duration of xylazine/ketamine anesthesia (behavioral correlate of emesis); assay type: in vivo; details: 5.8 μmol/kg oral; n = 5; P<0.01
Protocol: This assessment was carried out as previously reported. […] The animals were placed in dorsal position and their spontaneous return to the prone position was used as an endpoint to determine anesthesia duration.

Row | Structure (SMILES) | IC50 (PDE3) [µM] | LPS-induced airway hyper-reactivity (lung elastance after methacholine 3–27 mg/ml) (A/J mice [1]; Fig 9A) | neutrophil infiltration into the lung tissue (MPO activity) (A/J mice [1]; Fig 9B) | reduction of sleep time (duration of xylazine/ketamine anesthesia) (A/J mice [2]) [%]
1 | Cc1[nH]c(=O)c(C#N)cc1-c1ccncc1 [milrinone, reference compound] | 3.2 | – | – | –
2 | COc1ccc([C@]2(C#N)CC[C@@H](C(=O)O)CC2)cc1OC1CCCC1 [cilomilast, reference compound] | – | blockade | blockade | 28.4
